Earlier results, collected in US7202251B2, “Bicyclic anilide spirohydantoin CGRP receptor antagonists” (Merck & Co., Inc., priority 2003, dated 2007).
Ends that are not written are not given here.

How the values were obtained:
[1] = test system: facial blood flow; conditions: marmoset, electrical stimulation of the trigeminal ganglion
[2] = test system: facial blood flow; conditions: rat, trigeminal ganglion stimulation
[3] = test system: middle meningeal artery diameter; conditions: rats, electrical stimulation of the dura mater, prior administration

Molecule: NCCCC[C@H](NC(=O)[C@@H](Cc1cc(Br)c(O)c(Br)c1)NC(=O)N1CCC(N2Cc3ccccc3NC2=O)CC1)C(=O)N1CCN(c2ccncc2)CC1 [BIBN4096BS]
- effect on increase in facial blood flow [1]: blocked

Molecule: CGRP(8-37): a peptide CGRP antagonist (VTHRLAGLLSRSGGVVKNNFVPTNVGSKAF; ends and bridges not checked; UniProt P06881 90-119, looked up, fragment)
- effect on increased facial blood flow [2]: inhibited
- effect on increase of middle meningeal artery diameter [3]: blocked
